target: human ALK5 (Homo sapiens (Human), UniProt P36897); assay: ADP-GLO Kinases assay, inhibitory activity on ALK5; type: biochemical; conditions: not given
Sequence (P36897 80-503 limits assumed): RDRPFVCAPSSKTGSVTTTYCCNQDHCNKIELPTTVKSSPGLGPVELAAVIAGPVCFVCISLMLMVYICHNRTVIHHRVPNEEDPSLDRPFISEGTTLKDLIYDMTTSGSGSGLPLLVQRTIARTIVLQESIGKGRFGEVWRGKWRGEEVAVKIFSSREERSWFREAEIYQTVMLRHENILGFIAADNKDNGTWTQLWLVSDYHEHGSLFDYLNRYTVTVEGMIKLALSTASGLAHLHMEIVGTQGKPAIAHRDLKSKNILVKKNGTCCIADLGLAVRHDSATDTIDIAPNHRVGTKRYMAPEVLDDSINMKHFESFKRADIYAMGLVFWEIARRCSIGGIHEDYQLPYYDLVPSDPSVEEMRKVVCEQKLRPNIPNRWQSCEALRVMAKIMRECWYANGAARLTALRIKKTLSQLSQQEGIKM

| Compound | IC50 |
| --- | --- |
| Cc1nnc(-c2cc(Cl)ccc2F)cc1Nc1ccnc2cc(OC(=O)N3CCN(CCC4CCN(C)CC4)C(C(=O)OC4COC4)C3)ccc12 (stereo not shown) [Example 168, 1-(4-{[6-(5-chloro-2-fluorophenyl)-3-methylpyridazin-4-yl]amino}quinolin-7-yl) 3-oxetan-3-yl 4-[2-(1-methylpiperidin-4-yl)ethyl]piperazine-1,3-dicarboxylate] | 1 to 5 nM |
| CN1CCN(CCN(C)C(=O)Oc2ccc3c(Nc4cnnc(-c5cc(Cl)ccc5F)c4)ccnc3c2)CC1 [Example 45, 4-{[6-(5-Chloro-2-Fluorophenyl)Pyridazin-4-Yl]Amino}Quinolin-7-Yl N-Methyl-N-[2-(4-Methylpiperazin-1-Yl)Ethyl]Carbamate] | 1 to 5 nM |
| CN1CCC(N2CCN(C(=O)Oc3ccc4c(Nc5cnnc(-c6cc(Cl)ccc6F)c5)ccnc4c3)CC2)CC1 [Example 103, 4-{[6-(5-Chloro-2-Fluorophenyl)Pyridazin-4-Yl]Amino}Quinolin-7-Yl 4-(1-Methylpiperidin-4-Yl)Piperazine-1-Carboxylate] | 1 to 5 nM |

same assay, conditions: purified recombinant human ALK5 2.6 nM, TGFβ1 peptide substrate, 25° C, 150 min incubation, ADP-Glo detection; read-out: ALK5 IC50

| Compound | IC50 |
| --- | --- |
| CN1CC2(CCN(C(=O)Oc3ccc4c(Nc5cnnc(-c6cc(Cl)ccc6F)c5)ccnc4c3)CC2)C1 [Example 114, 4-{[6-(5-Chloro-2-Fluorophenyl)Pyridazin-4-Yl]Amino}Quinolin-7-Yl 2-Methyl-2,7-Diazaspiro[3.5]Nonane-7-Carboxylate] | < 1 nM |
| COC(=O)N(C)CCN1CCN(CC(=O)Nc2cc(Nc3cc(-c4cc(Cl)ccc4F)nnc3C)ccn2)CC1 [Example 107, Methyl N-[2-(4-{[(4-{[6-(5-Chloro-2-Fluorophenyl)-3-Methylpyridazin-4-Yl]Amino}Pyridin-2-Yl)Carbamoyl]Methyl}Piperazin-1-Yl)Ethyl]-N-Methylcarbamate] | < 1 nM |
| Fc1ccc(Cl)cc1-c1cc(Nc2ccnc3cc(OCCN4CCNCC4)ccc23)cnn1 [Example 9, N-[6-(5-chloro-2-fluorophenyl)pyridazin-4-yl]-7-[2-(piperazin-1-yl)ethoxy]quinolin-4-amine] | < 1 nM |
| O=C(NCCN1CCOCC1)c1ccc2c(Nc3cnnc(-c4cc(Cl)ccc4F)c3)ccnc2c1 [Example 4, 4-{[6-(5-Chloro-2-Fluorophenyl)Pyridazin-4-Yl]Amino}-N-[2-(Morpholin-4-Yl)Ethyl]Quinoline-7-Carboxamide] | < 1 nM |
| CS(=O)(=O)N1CCN(CCC(=O)Nc2cc(Nc3cnnc(-c4cc(Cl)ccc4F)c3)ccn2)CC1 [Example 34, N-(4-{[6-(5-Chloro-2-Fluorophenyl)Pyridazin-4-Yl]Amino}Pyridin-2-Yl)-3-(4-Methanesulfonylpiperazin-1-Yl)Propanamide] | 1 to 5 nM |
| CN1CCCN(CC(=O)Nc2cc(Nc3cc(-c4cc(Cl)ccc4F)nnc3CO)ccn2)CC1 [Example 178, N-(4-{[6-(5-Chloro-2-Fluorophenyl)-3-(Hydroxymethyl)Pyridazin-4-Yl]Amino}Pyridin-2-Yl)-2-(4-Methyl-1,4-Diazepan-1-Yl)Acetamide] | < 1 nM |
| Cc1nnc(-c2cc(Cl)ccc2F)cc1Nc1ccnc(NC(=O)CCN2CCN(CCC#N)CC2)c1 [Example 84, N-(4-{[6-(5-Chloro-2-Fluorophenyl)-3-Methylpyridazin-4-Yl]Amino}Pyridin-2-Yl)-3-[4-(2-Cyanoethyl)Piperazin-1-Yl]Propanamide] | < 1 nM |
| Cc1nnc(-c2cc(Cl)ccc2F)cc1Nc1ccnc(NC(=O)CCN2CC3CC(C2)N3C)c1 [Example 146, N-(4-{[6-(5-Chloro-2-Fluorophenyl)-3-Methylpyridazin-4-Yl]Amino}Pyridin-2-Yl)-3-{6-Methyl-3,6-Diazabicyclo[3.1.1]Heptan-3-Yl}Propanamide] | < 1 nM |
| CN1CC[C@@H](OC(=O)c2ccc3c(Nc4cnnc(-c5cc(Cl)ccc5F)c4)ccnc3c2)C1 [Example 54, (3R)-1-Methylpyrrolidin-3-Yl 4-{[6-(5-Chloro-2-Fluorophenyl)Pyridazin-4-Yl]Amino}Quinoline-7-Carboxylate] | 1 to 5 nM |

The next lines start with the values.

| IC50 | Compound |
| --- | --- |
| < 1 nM | Cc1nnc(-c2cc(Cl)ccc2F)cc1Nc1ccnc(NC(=O)CCN2CCNCC2)c1 [Example 74, N-(4-{[6-(5-chloro-2-fluorophenyl)-3-methylpyridazin-4-yl]amino}pyridin-2-yl)-3-(piperazin-1-yl)propanamide] |
| < 1 nM | CN1CCC(OC(=O)c2ccc3c(Nc4cnnc(-c5cc(Cl)ccc5F)c4)ccnc3c2)CC1 [Example 20, 1-Methylpiperidin-4-Yl 4-{[6-(5-Chloro-2-Fluorophenyl)Pyridazin-4-Yl]Amino}Quinoline-7-Carboxylate] |
| < 1 nM | CN1CCN(CCOc2ccc3c(Nc4cnnc(-c5cc(Cl)ccc5F)c4)ccnc3c2)CC1 [Example 12, N-[6-(5-Chloro-2-Fluorophenyl)Pyridazin-4-Yl]-7-[2-(4-Methylpiperazin-1-Yl)Ethoxy]Quinolin-4-Amine] |
| < 1 nM | Cc1nnc(-c2cc(Cl)ccc2F)cc1Nc1ccnc(NC(=O)CCN2CCN(C)C(CO)C2)c1 (stereo not shown) [Example 170] |
| 1 to 5 nM | CN1CCN(C(=O)c2cc3c(Nc4cnnc(-c5cc(Cl)ccc5F)c4)ccnc3[nH]2)CC1 [Example 38, 6-(5-Chloro-2-Fluorophenyl)-N-[2-(4-Methylpiperazine-1-Carbonyl)-1H-Pyrrolo[2,3-13]Pyridin-4-Yl]Pyridazin-4-Amine] |
| < 1 nM | CC(=O)NCCN1CCN(CCOc2ccc3c(Nc4cnnc(-c5cc(Cl)ccc5F)c4)ccnc3c2)CC1 [Example 69, N-[2-(4-{2-[(4-{[6-(5-Chloro-2-Fluorophenyl)Pyridazin-4-Yl]Amino}Quinolin-7-Yl)Oxy]Ethyl}Piperazin-1-Yl)Ethyl]Acetamide] |
| < 1 nM | Cc1nnc(-c2cc(Cl)ccc2F)cc1Nc1ccnc(NC(=O)CCCN2CCN(C)CC2)c1 [Example 65, N-(4-{[6-(5-Chloro-2-Fluorophenyl)-3-Methylpyridazin-4-Yl]Amino}Pyridin-2-Yl)-4-(4-Methylpiperazin-1-Yl)Butanamide] |
